# Test system: Citrobacter rodentium
# Experiment: Functionality assay (antimicrobial activity, killing of bacteria)
# Type: cell-based
# Experimental: One skilled in the art will appreciate that similar methods can be used to confirm the functionality of any AMP of interest, such as a defensin. The OD600 of a Citrobacter rodentium overnight culture was measured and a dilution series was performed. 100 μl of a 7.1×10^2 bacteria/ml dilution was used in the functionality assay. […] For LL37, the positive control had 20 μM pure synthetic LL37 (Microchem Facility, Emory) added, and LL37 peptide obtained in Example 2 was added at 8.5 μg (250 μl) or 17 μg (500 μl) (FIG. 3). 20 μM concentration of the synthetic peptides equals 8.8 μg added.
# [1] = CRAMP peptide of Example 2 at 30 μM or 53 μM, positive control 50 μM CRAMP (Sigma Genosys), FIG. 2
Substance,efficiency in killing Citrobacter rodentium compared with commercially available peptide [1],"efficiency in killing Citrobacter rodentium compared with commercially available peptide (LL37 peptide of Example 2 at 8.5 μg (250 μl) or 17 μg (500 μl), positive control 20 μM synthetic LL37, FIG. 3)"
"CRAMP-FLAG-tag: CRAMP with C-terminal FLAG tag, released by sumoase from His tag-SUMO-CRAMP-FLAG-tag (HMGLLRKGGEKIGEKLKKIGQKIKNFFQKLVPQPEQDYKDDDDKG; C-terminal FLAG tag; Resulting peptide when SEQ ID NO 45 treated with sumoase)",decrease in efficacy,
"LL37: human cathelicidin LL37 plus N-terminal His and Met, released by sumoase from His tag-SUMO-LL37 (HMLLGDFFRKSKEKIGKEFKRIVQRIKDFLRNLVPRTES; resulting peptide when SEQ ID NO 40 treated with sumoase.)",,almost as efficient in killing Citrobacter rodentium as the commercially available peptide
"CRAMP: mouse cathelicidin-related antimicrobial peptide, active last 34 aa, released by sumoase from recombinant His tag-SUMO-CRAMP (HMGLLRKGGEKIGEKLKKIGQKIKNFFQKLVPQPEQ; resulting protein when SEQ ID NO 47 treated with sumoase)",almost as efficient in killing Citrobacter rodentium as the commercially available peptide,
